“Also recorded” adds a separate entry of the source. Values belong to the compound of their own block, whether it stands above or below them.
Columns and labels:
[1] = system: Hs578T; experiment: Loss of spheroid viability after 48-hour exposure, preexisting spheroids, CellTiterGlo 3D; type: cell-based; conditions: Homo sapiens, Hs-578T, N=3, read-out: Cellular IC50 values for loss of spheroid viability after 48-hour exposure (μM ± S.E.M.)
[2] = system: Kuramochi; experiment: as above; type: cell-based; conditions: Homo sapiens, N=3, read-out: Cellular IC50 values for loss of spheroid viability after 48-hour exposure (μM ± S.E.M.)
[3] = system: MDA-MB-231; experiment: as above; type: cell-based; conditions: Homo sapiens, MDA-MB-231 spheroids, N=3, read-out: Cellular IC50 values for loss of spheroid viability after 48-hour exposure (μM ± S.E.M.)
[4] = system: OVCAR4; experiment: as above; type: cell-based; conditions: Homo sapiens, OVCAR-4, 48 h, N=3, read-out: Cellular IC50 values for loss of spheroid viability after 48-hour exposure (μM ± S.E.M.)
[5] = target: Recombinant human PTP4A3 phosphatase (Homo sapiens (Human), UniProt O75365); experiment: In vitro inhibition of PTP4A3 phosphatase activity (automated enzymatic assay); type: biochemical; conditions: mean of N independent assays, 10-point concentration curves, six replicates; read-out: IC50 (nM) ± SEM
[6] = target: recombinant human His6-tagged PTP4A1 (Homo sapiens (Human), UniProt Q93096); experiment: In vitro biochemical analysis of PTP4A inhibition, DiFMUP substrate; conditions: for IC50: DiFMUP 12 μM, 25° C., 25 minutes, read-out: IC50 values for Compounds Inhibiting Activity of PTP4A Family Members (mean (nM) ± S.E.M.), PTP4A1
[7] = target: recombinant human His6-tagged PTP4A3 (Homo sapiens (Human), UniProt O75365); experiment: as above; conditions: for IC50: DiFMUP 12 μM, 25° C., 25 minutes, read-out: IC50 values for Compounds Inhibiting Activity of PTP4A Family Members (mean (nM) ± S.E.M.), PTP4A3; for preference among the PTP4A family members (PTP4A3 versus PTP4A1, PTP4A2), in words: comparison of the IC50 values of Table 4
[8] = target: recombinant human His6-tagged PTP4A2 (Homo sapiens (Human), UniProt Q12974); experiment: as above; conditions: for IC50: DiFMUP 12 μM, 25° C., 25 minutes, read-out: IC50 values for Compounds Inhibiting Activity of PTP4A Family Members (mean (nM) ± S.E.M.), PTP4A2
[9] = system: OVSAHO; experiment: Spheroid growth viability, CellTiterGlo 3D; type: cell-based; conditions: Homo sapiens, 48 h, read-out: EC50 (mean μM ± SEM)
[10] = system: Kasumi (human AML); experiment: Leukemia/lymphoma cell viability, Alamar blue; type: cell-based; conditions: 48 h, read-out: EC50 (mean μM ± SEM)
[11] = system: HL60 (human APML); experiment: Leukemia/lymphoma cell viability, Alamar blue; type: cell-based; conditions: HL-60, 48 h, read-out: EC50 (mean μM ± SEM)
[12] = system: Kuramochi; experiment: Spheroid growth viability, CellTiterGlo 3D; type: cell-based; conditions: 48 h, read-out: EC50 (mean μM ± SEM)
[13] = system: Hs578T; experiment: Monolayer cancer cell viability, Alamar blue; type: cell-based; conditions: Homo sapiens, Hs-578T, 48 h, read-out: EC50 (mean μM ± SEM)
[14] = system: MOLT4 (human TALL); experiment: Leukemia/lymphoma cell viability, Alamar blue; type: cell-based; conditions: MOLT-4, 48 h, read-out: EC50 (mean μM ± SEM)
[15] = system: V581; experiment: Monolayer cancer cell viability, Alamar blue; type: cell-based; conditions: 48 h, read-out: EC50 (mean μM ± SEM)
[16] = system: V581; experiment: Spheroid growth viability, CellTiterGlo 3D; type: cell-based; conditions: 48 h, read-out: EC50 (mean μM ± SEM)
[17] = system: COV362-47R; experiment: Monolayer cancer cell viability, Alamar blue; type: cell-based; conditions: COV362-47R monolayer, 48-hour exposure, read-out: EC50 (mean μM ± SEM)
[18] = system: COV362; experiment: Monolayer cancer cell viability, Alamar blue; type: cell-based; conditions: 48-hour exposure, read-out: EC50 (mean μM ± SEM)
[19] = system: K562 (human CML); experiment: Leukemia/lymphoma cell viability, Alamar blue; type: cell-based; conditions: K562, 48 h, read-out: EC50 (mean μM ± SEM)
[20] = system: MV-4-11 (human AML/ALL); experiment: Leukemia/lymphoma cell viability, Alamar blue; type: cell-based; conditions: MV4-11, 48 h, read-out: EC50 (mean μM ± SEM)
[21] = system: OVCAR4; experiment: Spheroid growth viability, CellTiterGlo 3D; type: cell-based; conditions: Homo sapiens, OVCAR-4, 48 h, read-out: EC50 (mean μM ± SEM)
[22] = system: HL60-VCR (drug resistant human APML); experiment: Leukemia/lymphoma cell viability, Alamar blue; type: cell-based; conditions: HL60/VCR, 48 h, read-out: EC50 (mean μM ± SEM)
[23] = system: RS4;11 (human BALL); experiment: Leukemia/lymphoma cell viability, Alamar blue; type: cell-based; conditions: RS4-11, 48 h, read-out: EC50 (mean μM ± SEM)
[24] = system: C1498 (mouse AML); experiment: Leukemia/lymphoma cell viability, Alamar blue; type: cell-based; conditions: C1498, 48 h, read-out: EC50 (mean μM ± SEM)
[25] = system: U937 (human Histiocytic lymphoma); experiment: Leukemia/lymphoma cell viability, Alamar blue; type: cell-based; conditions: U-937, 48 h, read-out: EC50 (mean μM ± SEM)
[26] = system: OVSAHO; experiment: Monolayer cancer cell viability, Alamar blue; type: cell-based; conditions: Homo sapiens, OVSAHO, 48 h, read-out: EC50 (mean μM ± SEM)
[27] = system: OVCAR4; experiment: Monolayer cancer cell viability, Alamar blue; type: cell-based; conditions: Homo sapiens, OVCAR-4, 48 h, read-out: EC50 (mean μM ± SEM)
[28] = system: COV362-47R; experiment: Spheroid growth viability, CellTiterGlo 3D; type: cell-based; conditions: COV362-47R spheroid, 48 hour exposure, read-out: EC50 (mean μM ± SEM)
[29] = system: COV362; experiment: Spheroid growth viability, CellTiterGlo 3D; type: cell-based; conditions: 48 hour exposure, read-out: EC50 (mean μM ± SEM)

Sequence of recombinant human His6-tagged PTP4A2 (Q12974 whole entry): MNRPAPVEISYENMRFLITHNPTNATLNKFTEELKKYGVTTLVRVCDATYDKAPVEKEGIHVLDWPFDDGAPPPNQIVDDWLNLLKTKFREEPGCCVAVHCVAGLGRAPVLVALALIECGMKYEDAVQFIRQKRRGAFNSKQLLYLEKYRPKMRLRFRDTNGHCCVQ
Sequence of recombinant human His6-tagged PTP4A3 (O75365 whole entry): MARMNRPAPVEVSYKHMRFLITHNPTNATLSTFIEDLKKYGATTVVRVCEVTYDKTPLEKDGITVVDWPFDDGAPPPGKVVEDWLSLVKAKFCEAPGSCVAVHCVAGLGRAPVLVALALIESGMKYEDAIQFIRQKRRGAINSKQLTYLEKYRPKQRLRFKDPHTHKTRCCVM
Sequence of Recombinant human PTP4A3 phosphatase (O75365 whole entry): as above
Sequence of recombinant human His6-tagged PTP4A1 (Q93096 whole entry): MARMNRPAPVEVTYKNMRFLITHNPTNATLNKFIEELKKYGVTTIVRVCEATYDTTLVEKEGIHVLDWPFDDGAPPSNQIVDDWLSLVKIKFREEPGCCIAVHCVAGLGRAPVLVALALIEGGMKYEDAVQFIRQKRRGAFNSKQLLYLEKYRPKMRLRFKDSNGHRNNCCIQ

SMILES: N=C1C(=O)NC(=O)c2cc(-c3ccccc3)sc21 [Compound 2, 7-Imino-2-phenylthieno[3,2-c]pyridine-4,6(5H,7H)-dione, reference compound]
IC50 [1]: 8.48 ± 2.38 µM
IC50 [2]: 13.2 ± 0.65 µM
IC50 [3]: 32.7 ± 7.02 µM
IC50 [4]: 4.42 µM

SMILES: N=C1C(=O)NC(=O)c2cc(-c3ccc(Cl)cc3)sc21 [Compound 9b, 2-(4-Chlorophenyl)-7-iminothieno[3,2-c]pyridine-4,6(5H,7H)-dione]
IC50 [5]: 41.9 ± 1.15 nM

SMILES: N=C1C(=O)NC(=O)c2cc(-c3ccc(F)cc3)sc21 [Compound 9d, 2-(4-Fluorophenyl)-7-iminothieno[3,2-c]pyridine-4,6(5H,7H)-dione]
IC50 [5]: 71 ± 2.54 nM

SMILES: CC(C)(C)C(=O)Oc1ccc(-c2cc3c(s2)C(=N)C(=O)NC3=O)cc1 [Compound 9e, 4-(7-Imino-4,6-dioxo-4,5,6,7-tetrahydrothieno[3,2-c]pyridin-2-yl)phenyl pivalate]
IC50 [5]: 256 ± 12.3 nM

SMILES: N=C1C(=O)NC(=O)c2cc(-c3cccc(C(F)(F)F)c3)sc21 [Compound 9g, 7-Imino-2-(3-(trifluoromethyl)phenyl)thieno[3,2-c]pyridine-4,6(5H,7H)-dione]
IC50 [5]: 193 ± 6.06 nM

SMILES: N=C1C(=O)NC(=O)c2cc(-c3cccc(Cl)c3)sc21 [Compound 9h, 2-(3-Chlorophenyl)-7-iminothieno[3,2-c]pyridine-4,6(5H,7H)-dione]
IC50 [5]: 65.7 ± 4.13 nM

SMILES: Cc1cccc(-c2cc3c(s2)C(=N)C(=O)NC3=O)c1 [Compound 9i, 7-Imino-2-(m-tolyl)thieno[3,2-c]pyridine-4,6(5H,7H)-dione]
IC50 [5]: 53.4 ± 1.46 nM

SMILES: N=C1C(=O)NC(=O)c2cc(-c3ccc(OCCCCNC(=O)CC45CC6CC(CC(C6)C4)C5)cc3)sc21 [EJR-876-35]
EC50 [9]: 21.1 ± 2.8 µM
EC50 [10]: 4.3 ± 1.3 µM
EC50 [11]: 1.6 ± 0.2 µM
EC50 [12]: > 50 µM
EC50 [13]: 6.2 µM
EC50 [14]: 1 ± 0.1 µM
EC50 [15]: > 50 µM
EC50 [16]: 44.4 µM
EC50 [17]: 25.2 ± 6.2 µM
EC50 [18]: 25.7 ± 5.3 µM
EC50 [19]: 25.6 ± 2.8 µM
EC50 [20]: 4.5 ± 1.8 µM
EC50 [21]: 16.7 ± 1.9 µM
EC50 [22]: 17.7 ± 3.8 µM
EC50 [23]: 2.2 ± 0.4 µM
EC50 [24]: 1.2 ± 0.2 µM
EC50 [25]: 6.87 ± 0.4 µM
EC50 [26]: 18.8 ± 2.2 µM
EC50 [27]: 15.5 ± 4.7 µM
EC50 [28]: > 50 µM
EC50 [29]: 16 ± 3.7 µM

Now from value to compound, other results behind:

IC50 [5]: 47.6 ± 2.68 nM
SMILES: COc1cccc(-c2cc3c(s2)C(=N)C(=O)NC3=O)c1 [Compound 9j, 2-(3-Methoxyphenyl)-7-iminothieno[3,2-c]pyridine-4,6(5H,7H)-dione]

IC50 [3]: > 50 µM
IC50 [4]: 12.3 ± 2.26 µM
IC50 [6]: 49 ± 5 nM
IC50 [7]: 36.1 nM
preference among the PTP4A family members (PTP4A3 versus PTP4A1, PTP4A2), in words [7]: more pronounced preference for PTP4A3
IC50 [5]: 36.1 ± 1.43 nM
SMILES: N=C1C(=O)NC(=O)c2cc(-c3ccccc3Cl)sc21 [Compound 9k, 2-(2-Chlorophenyl)-7-iminothieno[3,2-c]pyridine-4,6(5H,7H)-dione]
IC50 [1]: 14.4 ± 4.91 µM
IC50 [2]: > 50 µM

IC50 [5]: 53.4 ± 1.46 nM
SMILES: N=C1C(=O)NC(=O)c2cc(-c3ccccc3F)sc21 [Compound 9l, 2-(2-Fluorophenyl)-7-iminothieno[3,2-c]pyridine-4,6(5H,7H)-dione]

IC50 [5]: 67.7 ± 3 nM
SMILES: N=C1C(=O)NC(=O)c2cc(-c3ccc(F)c(Cl)c3)sc21 [Compound 9n, 2-(3-Chloro-4-fluorophenyl)-7-iminothieno[3,2-c]pyridine-4,6(5H,7H)-dione]

IC50 [3]: > 50 µM
IC50 [4]: 19.6 ± 4.66 µM
IC50 [6]: 43.2 ± 8.5 nM
IC50 [8]: 73.9 ± 10 nM
IC50 [7]: 98.2 nM
preference among the PTP4A family members (PTP4A3 versus PTP4A1, PTP4A2), in words [7]: little preference
IC50 [5]: 98.2 ± 2.49 nM
SMILES: N=C1C(=O)NC(=O)c2cc(-c3ccc(OCCN4CCOCC4)cc3)sc21 [Compound 9o, 7-Imino-2-(4-(2-morpholinoethoxy)phenyl)thieno[3,2-c]pyridine-4,6(5H, 7H)-dione]
IC50 [1]: 12 ± 3.84 µM
IC50 [2]: > 50 µM

IC50 [3]: 61.5 ± 9.66 µM
IC50 [4]: 11.5 ± 2.38 µM
IC50 [6]: 133 ± 31.7 nM
IC50 [7]: 86 nM
preference among the PTP4A family members (PTP4A3 versus PTP4A1, PTP4A2), in words [7]: more pronounced preference for PTP4A3
IC50 [5]: 48.9 ± 12 nM
SMILES: CN1C(=O)C(=N)c2sc(-c3ccccc3)cc2C1=O [Compound 9p, 7-Imino-5-methyl-2-phenylthieno[3,2-c]pyridine-4,6(5H,7H)-dione]
IC50 [1]: 10.1 ± 1.93 µM
IC50 [2]: 34.1 ± 8.6 µM

IC50 [5]: 85.7 ± 5.96 nM
SMILES: N=C1C(=O)N(CC2CC2)C(=O)c2cc(-c3ccccc3)sc21 [Compound 9q, 5-(Cyclopropylmethyl)-7-imino-2-phenylthieno[3,2-c]pyridine-4,6(5H,7H)-dione]

IC50 [3]: > 50 µM
IC50 [4]: > 50 µM
IC50 [6]: > 1000 nM
inhibition of PTP4A1 (in words) ([6]; DiFMUP, 25-minute incubation): inactive
IC50 [8]: > 1000 nM
inhibition of PTP4A2 (in words) ([8]; DiFMUP, 25-minute incubation): inactive
IC50 [7]: > 1000 nM
SMILES: O=c1[nH]c(=O)c2cc(-c3ccccc3)sc2[nH]1 [JMS-038, 6-phenylthieno[2,3-d]pyrimidine-2,4(1H,3H)-dione, reference compound]
IC50 [1]: > 50 µM
IC50 [2]: > 50 µM
inhibition of PTP4A3 (in words) ([7]; DiFMUP, 25-minute incubation): failed to inhibit; also recorded: inactive

IC50 [5]: 32.2 ± 3.52 nM
SMILES: CN1C(=O)C(=O)c2sc(-c3ccccc3)cc2C1=O [NRT-892-04]

From US12202839B2, “In-flow photooxygenation of aminothienopyridinones generates PTP4A3 phosphatase inhibitors” (University of Virginia Patent Foundation, priority 2018, dated 2025)
